{P} = phosphate
Legend:
DNA-PKCS = assay: Western blot with antibody against ATM phosphoserine 1981 in normal newborn fibroblasts; type: cell-based; settings: 40 μM, 4-48 hours
Experimental: The positions of ATM and DNA-PKCS are indicated. Sham and irradiated (10 Gy IR) fibroblasts were included as controls.
Normal newborn fibroblasts were treated with 40 μM T-oligo or an equal volume of diluent for 4, 6, 8, 16, 24 or 48 hours then collected and analyzed by Western blot using an antibody against ATM phosphoserine 1981. […] The phosphorylated protein was shown in subsequent experiments to co-migrate with the catalytic subunit of ATM-related DNA-dependent protein kinase (DNA-PKCS), which would reasonably be expected to bind an antibody raised against the highly homologous ATM protein.

[1] = tested on: p53, E2F1 transcription factor; assay: Western analysis of p53 and E2F1 in Jurkat cells; type: cell-based, human; settings: by 24 hours after addition
S91 mouse melanoma cells = assay: Melanin content of S91 mouse melanoma cells; type: cell-based; settings: 6 days
Experimental: FIG. 4 is a bar graph showing the melanin content (in pg/cell) of cells treated with diluent, pTpT or pTspT.
FIG. 5 is a bar graph showing the melanin content (in pg/cell) of cells treated with diluent, 11 mer-1 or 11 mer-1-S.
Cultures of S91 mouse melanoma cells (100,000 cells/38 cm^2) were treated with 100 μM pTpT or phosphorothioate pTpT (pTspT) (FIG. 4) or 40 μM 11 mer-1 or the phosphorothioate 11 mer-1 (11 mer-1-S) (FIG. 5) for 6 days and were then collected, counted and assayed for melanin content.

Jurkat cells = assay: FACS analysis of propidium iodide stained Jurkat cells (S phase, sub-G0/G1 apoptosis); type: cell-based, human
Experimental: FIGS. 1A-1H show FACS analysis of propidium iodide stained Jurkat cells (immortalized T lymphocytes), treated with diluent (FIGS. 1A and 1E); 40 μM 11 mer-1 pGTTAGGGTTAG (SEQ ID NO: 2) (FIGS. 1B and 1F); 40 μM 11 mer-2 pCTAACCCTAAC (SEQ ID NO: 3) (FIGS. 1C and 11G); 40 μM 11 mer-3 pGATCGATCGAT (SEQ ID NO: 4) (FIGS. 1D and 1H). Jurkat cells were treated with the stated reagents for 48 hours before analysis (FIG. 1A-1D) or 72 hours (FIGS. 1E-1H).
FIGS. 2A-2F are profiles showing the results of fluorescence activated cell sorting, for the following additions to the cells: FIG. 2A, diluent; FIG. 2B, 0.4 μM 11 mer-1; FIG. 2C, 0.4 μM 11 mer-1-S; FIG. 2D, diluent; FIG. 2E, 40 μM 11 mer-1; FIG. 2F, 40 μM 11 mer-1-S.
Oligonucleotides homologous to the telomere overhang repeat sequence (TTAGGG; SEQ ID NO: 1), sequence (11 mer-1: pGTTAGGGTTAG; SEQ ID NO: 2), complementary to this sequence (11 mer-2: pCTAACCCTAAC; SEQ ID NO: 3) and unrelated to the telomere sequence (11 mer-3: pGATCGATCGAT; SEQ ID NO: 4) were added to cultures of Jurkat cells, a line of human T cells reported to undergo apoptosis in response to telomere disruption. Within 48 hours, 50% of the cells treated with 40 μM of SEQ ID NO: 2 had accumulated in the S phase, compared to 25-30% for control cells (p<0.0003, non-paired t-test; see FIGS. 1A-1D), and by 72 hours, 13% of these cells were apoptotic as determined by a sub-G0/G1 DNA content, compared to 2-3% of controls (p<0.007, non-paired t-test; see FIGS. 1E-1H). At 96 hours, 20±3% of the 11 mer-1 treated cells were apoptotic compared with 3-5% of controls (p<0.0001, non-paired t-test). To exclude preferential uptake of the 11 mer-1 as an explanation of its singular effects, Jurkat cells were treated with oligonucleotides labeled on the 3′ end with fluorescein phosphoramidite, then subjected to confocal microscopy and FACS analysis. The fluorescence intensity of the cells was the same after all treatments at 4 hours and 24 hours.
Cultures of Jurkat human T cells were treated with either diluent, 11 mer-1 (SEQ ID NO: 1) or the phosphorothioate 11 mer-1 (11 mer-1-S) for 96 hours, then collected and processed for FACS analysis. Two concentrations of the oligonucleotides were tested, 0.4 μM (FIGS. 2A-2C) and 40 μM (FIGS. 2D-2F).

p53 serine 37 = assay: Western analysis of p53 phosphorylated on serine 37 in newborn fibroblasts; type: cell-based; settings: 40 μM
[2] = tested on: keratinocyte cell line (SSC12F); assay: S-phase arrest by FACS in keratinocyte cell line; type: cell-based; settings: 48 hours, 11 mer-1 alone (10 μM per FIG. 3B); diluent control 26%
Experimental: FIGS. 3A-3G are profiles showing the results of fluorescence activated cell sorting, for the following additions to the cells: FIG. 3A, diluent; FIG. 3B, 10 μM 11 mer-1; FIG. 3C, 10 μM 11 mer-1 and 1 μM 11 mer-1-S; FIG. 3D, 10 μM 11 mer-1 and 5 μM 11 mer-1-S; FIG. 3E, 10 μM 11 mer-1 and 10 μM 11 mer-1-S; FIG. 3F, 20 μM 1 mer-1-S; FIG. 3G, 10 μM 11 mer-1-S.
Forty-three percent of the cells were in the S phase, compared to 26% of the control, diluent-treated cells.

WRN = target: T1, WRN (Homo sapiens, UniProt Q14191); assay: WRN siRNA knock-down and T-oligo response, western blot in normal neonatal fibroblasts; type: cell-based; settings: 40 μM T-oligo, 24 or 48 hours, WRN siRNA-treated cells
T1 construct: endogenous in cells; host or cells: normal neonatal fibroblasts
Experimental: Protein level of WRN on the day of T-oligo treatment is indicated at “0 Hrs”. T-oligo (40 μM, T) or diluent (D) were added and cells collected after 24 or 48 hours for western analysis. Control fibroblasts were either sham (IR, −) or irradiated with 10 Gy IR (IR, +) and collected after one hour. The western blot was probed with antibodies, recognizing WRN, p53 phosphoserine 15 or phospho H2AX.
Normal neonatal fibroblasts were treated on 2 consecutive days with 50 ρmol of WRN siRNA or […] of siRNA directed against the control green fluorescent protein (GFP). One day after the second siRNA treatment, representative cultures were collected for western blot analysis to assess the effectiveness of the WRN siRNA in eliminating the protein. Also at this time, duplicate cultures of WRN siRNA-treated or GFP siRNA-treated cultures were given either 40 μM T-oligo (11 mer-1; SEQ ID NO: 2) or an equal amount of diluent. Cells from all conditions were collected one or two days after the addition of T-oligo or diluent and were analyzed by western blot for p53 phosphorylation on serine 15 and phosphorylation of histone H2AX, both well-documented DNA damage responses (Lambert et al., 1998, J Biol Chem 273, 33048-53; Burma et al., 2001, J Biol Chem 276, 42462-7). Also as controls, cell lysates from cells sham-irradiated or irradiated with 10 Gy ionizing radiation (1R) were included. […]

S91 cells = assay: UV-induced melanogenesis in S91 cells (melanin content, OD 475 nm); type: cell-based, mouse; settings: 100 μM, one week
From the text: FIG. 6 is a bar graph showing the melanin content (in pg/cell) of cells that have been sham-treated (no irradiation, no oligonucleotides), or treated with ultraviolet light (UV), or unirradiated but given pTspT, or irradiated with UV and given pTspT.
Duplicate cultures of S91 cells (100,000 cells/39 cm^2) were either sham-irradiated or irradiated with 5 mJ/cm^2 solar-simulated light from a 1 kW xenon arc solar-simulator (XMN 1000-21, Optical Radiation, Azuza, Calif.) metered at 285 5 nm using a research radiometer (model IL1700A, International Light, Newburyport, Mass.). Two sham-irradiated plates were then supplemented with 100 μM pTspT and two irradiated cultures were similarly treated with pTspT. After one week, cells were collected, counted and analyzed for melanin content by dissolving the cell pellets in 1 N NaOH and measuring the optical density at 475 nm. […] However, this response was blocked by the addition of pTspT (FIG. 6). In addition, the constitutive pigmentation of these cells was reduced by the pTspT in the sham-irradiated cultures, similar to the data presented in FIGS. 4 and 5.

T1 sequence (Q14191 whole entry): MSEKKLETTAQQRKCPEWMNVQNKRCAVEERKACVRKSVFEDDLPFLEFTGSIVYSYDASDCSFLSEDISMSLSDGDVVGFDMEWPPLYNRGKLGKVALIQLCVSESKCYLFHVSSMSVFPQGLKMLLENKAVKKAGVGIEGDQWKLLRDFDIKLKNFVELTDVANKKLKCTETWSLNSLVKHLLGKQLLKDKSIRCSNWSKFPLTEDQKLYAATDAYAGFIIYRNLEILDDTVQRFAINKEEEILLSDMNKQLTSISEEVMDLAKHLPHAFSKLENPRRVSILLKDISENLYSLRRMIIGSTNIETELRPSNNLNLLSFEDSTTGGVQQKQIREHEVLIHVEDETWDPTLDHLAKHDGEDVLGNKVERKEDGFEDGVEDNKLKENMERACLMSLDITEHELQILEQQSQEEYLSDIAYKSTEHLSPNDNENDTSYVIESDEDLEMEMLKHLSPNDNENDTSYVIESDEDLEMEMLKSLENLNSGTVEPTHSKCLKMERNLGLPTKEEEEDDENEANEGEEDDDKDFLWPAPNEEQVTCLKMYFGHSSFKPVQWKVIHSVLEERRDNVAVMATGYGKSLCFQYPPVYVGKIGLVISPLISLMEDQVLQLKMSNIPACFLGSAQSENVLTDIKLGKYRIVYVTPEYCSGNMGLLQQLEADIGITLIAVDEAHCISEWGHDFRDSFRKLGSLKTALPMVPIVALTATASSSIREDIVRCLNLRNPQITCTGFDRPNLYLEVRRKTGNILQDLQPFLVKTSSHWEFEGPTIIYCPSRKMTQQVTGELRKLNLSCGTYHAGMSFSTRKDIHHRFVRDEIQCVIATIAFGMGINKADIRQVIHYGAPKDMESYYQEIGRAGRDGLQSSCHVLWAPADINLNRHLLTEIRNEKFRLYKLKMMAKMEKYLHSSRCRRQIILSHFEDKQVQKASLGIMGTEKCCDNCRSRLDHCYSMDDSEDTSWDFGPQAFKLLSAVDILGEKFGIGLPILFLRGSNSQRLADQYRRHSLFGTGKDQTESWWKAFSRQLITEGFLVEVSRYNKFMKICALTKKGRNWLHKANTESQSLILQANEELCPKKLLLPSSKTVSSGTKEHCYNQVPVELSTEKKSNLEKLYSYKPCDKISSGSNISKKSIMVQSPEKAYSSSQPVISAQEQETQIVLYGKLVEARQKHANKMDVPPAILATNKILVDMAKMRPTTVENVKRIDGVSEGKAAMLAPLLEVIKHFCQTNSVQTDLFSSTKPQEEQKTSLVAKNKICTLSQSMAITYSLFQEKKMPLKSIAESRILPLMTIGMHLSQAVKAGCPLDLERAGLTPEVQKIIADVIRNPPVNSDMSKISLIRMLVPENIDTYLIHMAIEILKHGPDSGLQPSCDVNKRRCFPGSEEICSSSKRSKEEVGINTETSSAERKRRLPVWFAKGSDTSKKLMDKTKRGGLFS

Substance	phosphorylation of 450 kDa protein (DNA-PKCS) (DNA-PKCS)	level of the E2F1 transcription factor [1]	p53 level [1]	stimulation of melanogenesis (melanin content) (S91 mouse melanoma cells; 40 μM)	effect on exponentially growing cell cycle profile (Jurkat cells; 0.4 μM, 96 hours)	apoptotic cells (sub-G0/G1 DNA content) (Jurkat cells; 40 μM, 72 hours, controls 2-3%) [%]	apoptosis (sub-G0/G1 peak) (Jurkat cells; 40 μM, 96 hours)	cells accumulated in the S phase (Jurkat cells; 40 μM, within 48 hours, control cells 25-30%) [%]	apoptotic cells (Jurkat cells; 96 hours, controls 3-5%) [%]	phosphorylation of p53 serine 37 (p53 serine 37)	cells in the S phase [2]	ability to induce phosphorylation of H2AX after WRN knock-down (WRN)	ability to induce phosphorylation of p53 (serine 15) after WRN knock-down (WRN)	constitutive pigmentation (S91 mouse melanoma cells; 100 μM)	stimulation of melanogenesis (melanin content) (S91 mouse melanoma cells; 100 μM)	UV-induced doubling of melanin content (S91 cells; 5 mJ/cm^2 solar-simulated light)	constitutive pigmentation (S91 cells; sham-irradiated cultures)
pGTTAGGGTTAG (DNA, 5' {P}, backbone not given here) [11 mer-1]	leads to phosphorylation	concomitant increase	increase	stimulated melanogenesis	neither of the oligonucleotides affected	13	induced extensive apoptosis	50	20±3	phosphorylated	Forty-three	dramatically reduced	dramatically reduced				
pTspT														reduced the constitutive pigmentation	did not	blocked	reduced
pTpT															stimulated melanogenesis		

Source: patent US20080221052A1, “Modulation of Wrn-Mediated Telomere-Initiated Cell Signaling” (priority 2004, published 2008)
